ChEMBL document CHEMBL1147478, “Phosphonate inhibitors of antigen 85C, a crucial enzyme involved in the biosynthesis of the Mycobacterium tuberculosis cell wall” (Bioorg Med Chem Lett, 2004)

These compounds were tested against Diacylglycerol acyltransferase/mycolyltransferase Ag85C (Mycobacterium tuberculosis, UniProt P9WQN9) (assay: In vitro concentration required to inhibit antigen 85C mycolyltransferase activity in Mycobacterium tuberculosis).
Sequence of Diacylglycerol acyltransferase/mycolyltransferase Ag85C (P9WQN9 whole entry): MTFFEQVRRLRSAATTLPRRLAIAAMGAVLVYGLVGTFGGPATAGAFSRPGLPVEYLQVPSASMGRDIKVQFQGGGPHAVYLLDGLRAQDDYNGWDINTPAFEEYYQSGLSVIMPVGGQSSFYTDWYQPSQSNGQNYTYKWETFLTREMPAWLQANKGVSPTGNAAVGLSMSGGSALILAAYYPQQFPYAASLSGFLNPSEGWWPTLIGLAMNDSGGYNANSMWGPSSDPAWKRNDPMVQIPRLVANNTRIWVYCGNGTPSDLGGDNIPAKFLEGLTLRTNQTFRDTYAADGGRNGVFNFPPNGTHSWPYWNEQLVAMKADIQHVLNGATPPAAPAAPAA

First: CCCCCCP(=O)(OCC)OCc1cccc(Oc2ccccc2)c1 (configuration not stated)
Second: CCCCCCCP(=O)(OCC)OCc1cccc(Oc2ccccc2)c1 (configuration not stated)
The IC50 of the first is 2-fold higher: 42.6 µM for the first, 21 µM for the second.

Going from `CCCCCCCCCP(=O)(OCC)OCCN1C(=O)c2ccccc2C1=O` (configuration not stated) to `CCCCCCCCCP(=O)(OCC)OCN1C(=O)c2ccccc2C1=O` (configuration not stated), the IC50 rises from 25.7 µM to 87.1 µM (3.4-fold).

First: CCCCCCCCCCCCCCP(=O)(OCC)OCc1cccc(Oc2ccccc2)c1 (configuration not stated)
Second: CCCCCCCCCP(=O)(OCC)OCc1cccc(Oc2ccccc2)c1 (configuration not stated)
The IC50 of the first is 58-fold higher: 862 µM for the first, 14.8 µM for the second.

First: CCCCCCCP(=O)(O)OCC [ETHYL HYDROGEN HEPTYLPHOSPHONATE]
Second: CCCCCCP(=O)(O)OCC [ETHYL HYDROGEN HEXYLPHOSPHONATE]
The IC50 of the first is 3.4-fold lower: 1.06 µM for the first, 3.56 µM for the second. The first is the more potent here.

Compared with `CCCCP(=O)(OCC)OCCN1C(=O)c2ccccc2C1=O` (configuration not stated), `CCCCP(=O)(OCC)OCN1C(=O)c2ccccc2C1=O` (configuration not stated) is 5.1-fold lower in IC50: 50.7 µM for the first, 10 µM for the second. The second is the more potent here.

Compared with `CCCCCCCCCCCCCCP(=O)(OCC)OCN1C(=O)c2ccccc2C1=O` (configuration not stated), `CCCCCCCP(=O)(OCC)OCN1C(=O)c2ccccc2C1=O` (configuration not stated) is 31-fold lower in IC50: 41 µM for the first, 1.31 µM for the second.

Going from `CCCCCCP(=O)(O)OCCN1C(=O)c2ccccc2C1=O` to `CCCCCCCP(=O)(O)OCCN1C(=O)c2ccccc2C1=O`, the IC50 falls from 4.39 µM to 1.47 µM (3-fold). The second is the more potent here.

`CCCCCCCCCP(=O)(O)OCC` [ETHYL HYDROGEN NONYLPHOSPHONATE] and `CCCCP(=O)(O)OCC` [ETHYL HYDROGEN BUTYLPHOSPHONATE] are within 1.5-fold of each other in IC50: 471 µM for the first, 431 µM for the second.

`CCCCP(=O)(OCC)OCc1cccc(Oc2ccccc2)c1` (configuration not stated) showed an IC50 of 2.01 µM.
